Assay results as given in patent US9815796B2 (Merck Sharp & Dohme Corp., priority 2013, dated 2017).
Where two headings read alike, the source gives them in different places.

Legend:
Rhesus PDE2A3 = Rhesus PDE2A3 (Macaca mulatta, UniProt B3VTJ2); assay: PDE2 fluorescence polarization (IMAP FP) inhibition assay, rhesus enzyme; format: biochemical, rhesus macaque
Method in brief: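 IMAP FP (mP from parallel and perpendicular fluorescence against substrate-only control) was read ≥1 h after adding binding reagent. The preceding 60 min room-temperature reaction contained FAM-cAMP (50 nM) and cGMP (1 uM) in pH 7.2 Tris buffer with MgCl2 and DTT. Enzyme was supernatant of sonicated AD293 cells expressing rhesus PDE2A3; compounds were 3-fold titrated, DMSO 1% final.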

human PDE2A1 = human PDE2A1 (Homo sapiens (Human), UniProt O00408); assay: IMAP FP PDE selectivity panel, human PDE2A1; format: biochemical; conditions: Human PDE2, Lab B; read-out: Human PDE2 Ki (nM) - Lab B
Method in brief: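 IMAP FP format: substrate 50 nM FAM-cAMP plus 1000 nM cGMP, enzyme (insect-cell GST-tagged human PDE2A1) at ~20% conversion, 60 min reaction at room temperature. Apparent inhibition constants calculated from parallel/perpendicular fluorescence with KM 10,000 nM.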

[1] = Rhesus PDE2, Lab A, read-out: Rhesus PDE2 Ki (nM) - Lab A
[2] = Rhesus PDE2, Lab B, read-out: Rhesus PDE2 Ki (nM) - Lab B

Rhesus PDE2A3, sequence (B3VTJ2 1-941): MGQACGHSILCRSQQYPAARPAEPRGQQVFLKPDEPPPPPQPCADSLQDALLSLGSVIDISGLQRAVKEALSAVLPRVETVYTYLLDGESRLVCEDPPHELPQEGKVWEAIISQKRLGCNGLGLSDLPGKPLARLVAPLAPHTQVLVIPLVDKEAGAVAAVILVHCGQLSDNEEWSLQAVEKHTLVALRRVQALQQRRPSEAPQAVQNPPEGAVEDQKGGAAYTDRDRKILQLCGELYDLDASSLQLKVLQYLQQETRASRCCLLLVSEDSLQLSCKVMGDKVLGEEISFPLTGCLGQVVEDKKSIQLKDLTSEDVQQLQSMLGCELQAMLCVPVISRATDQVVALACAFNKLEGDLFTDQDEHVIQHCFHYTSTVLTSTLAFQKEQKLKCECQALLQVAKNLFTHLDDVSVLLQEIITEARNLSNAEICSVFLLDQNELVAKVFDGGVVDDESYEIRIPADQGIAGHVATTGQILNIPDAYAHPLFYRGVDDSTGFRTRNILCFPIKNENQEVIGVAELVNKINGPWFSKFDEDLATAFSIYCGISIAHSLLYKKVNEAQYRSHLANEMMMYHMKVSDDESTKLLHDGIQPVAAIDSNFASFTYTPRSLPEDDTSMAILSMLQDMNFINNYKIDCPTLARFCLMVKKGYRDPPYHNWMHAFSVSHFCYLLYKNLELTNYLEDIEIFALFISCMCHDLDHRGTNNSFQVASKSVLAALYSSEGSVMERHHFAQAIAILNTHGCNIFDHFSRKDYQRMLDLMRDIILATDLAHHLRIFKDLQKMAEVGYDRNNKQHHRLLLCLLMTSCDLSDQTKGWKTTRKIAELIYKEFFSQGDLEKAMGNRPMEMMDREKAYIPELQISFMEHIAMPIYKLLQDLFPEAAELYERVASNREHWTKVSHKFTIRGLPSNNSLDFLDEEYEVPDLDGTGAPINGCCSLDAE
human PDE2A1, sequence (O00408 other isoform, or with tags, fused parts or gaps): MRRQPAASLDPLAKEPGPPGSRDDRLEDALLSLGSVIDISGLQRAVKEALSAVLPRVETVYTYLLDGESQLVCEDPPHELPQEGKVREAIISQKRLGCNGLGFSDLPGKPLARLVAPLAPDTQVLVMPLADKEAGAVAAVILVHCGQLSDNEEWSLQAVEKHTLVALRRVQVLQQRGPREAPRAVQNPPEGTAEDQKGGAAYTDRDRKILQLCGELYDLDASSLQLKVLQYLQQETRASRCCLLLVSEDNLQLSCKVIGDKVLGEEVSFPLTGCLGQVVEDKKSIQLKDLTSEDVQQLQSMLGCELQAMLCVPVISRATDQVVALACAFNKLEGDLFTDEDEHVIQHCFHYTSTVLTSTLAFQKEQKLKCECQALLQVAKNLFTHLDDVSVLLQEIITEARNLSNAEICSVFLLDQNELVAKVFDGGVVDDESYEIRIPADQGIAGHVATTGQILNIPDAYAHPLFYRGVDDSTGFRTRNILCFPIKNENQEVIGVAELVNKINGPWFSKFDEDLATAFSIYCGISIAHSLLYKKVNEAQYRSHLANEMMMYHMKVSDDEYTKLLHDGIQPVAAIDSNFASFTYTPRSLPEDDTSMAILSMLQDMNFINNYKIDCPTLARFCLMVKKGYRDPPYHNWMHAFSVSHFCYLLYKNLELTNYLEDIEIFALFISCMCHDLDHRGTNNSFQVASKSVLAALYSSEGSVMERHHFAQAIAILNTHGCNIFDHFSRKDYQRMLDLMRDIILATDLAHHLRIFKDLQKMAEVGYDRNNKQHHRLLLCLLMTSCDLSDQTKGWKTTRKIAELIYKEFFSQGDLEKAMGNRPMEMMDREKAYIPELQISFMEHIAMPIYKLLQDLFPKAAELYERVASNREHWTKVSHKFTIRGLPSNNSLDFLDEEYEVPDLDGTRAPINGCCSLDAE

| Ki (Rhesus PDE2A3; [1]) | Ki (Rhesus PDE2A3; [2]) | Ki (human PDE2A1) | Compound |
| --- | --- | --- | --- |
| 45 nM | 74 nM | 50 nM | COc1ccc([C@@H](C)NC(=O)c2cc(=O)[nH]c(-c3ccccc3)n2)cc1 [Example 347, N-[(1R)-1-(4-methoxyphenyl)ethyl]-6-oxo-2-phenyl-1,6-dihydropyrimidine-4-carboxamide] |
| 21 nM |  | 39 nM | CC(NC(=O)c1cc(=O)[nH]c(-c2ccccc2)n1)c1ccc(-n2cccn2)cc1 (stereo not drawn) [Example 350, 6-oxo-2-phenyl-N-{1-[4-(1H-pyrazol-1-yl)phenyl]ethyl}-1,6-dihydropyrimidine-4-carboxamide] |
| 124 nM | 217 nM | 224 nM | COc1cc(C(C)NC(=O)c2cc(=O)[nH]c(-c3ccccc3)n2)cc(OC)c1OC (stereo not drawn) [Example 351, 6-oxo-2-phenyl-N-[1-(3,4,5-trimethoxyphenyl)ethyl]-1,6-dihydropyrimidine-4-carboxamide] |
| 15 nM | 51 nM | 54 nM | O=C(NC1(c2ccc(SC(F)(F)F)c(F)c2)CC1)c1cc(=O)[nH]c(-c2ccccc2)n1 [Example 352, N-(1-{3-fluoro-4-[(trifluoromethyl)sulfanyl]phenyl}cyclopropyl)-6-oxo-2-phenyl-1,6-dihydropyrimidine-4-carboxamide] |
| ~9.2 nM | 23 nM | 21 nM | O=C(N[C@H](CC(F)(F)F)c1ccc(C(F)(F)F)cc1)c1cc(=O)[nH]c(-c2ccccc2)n1 [Example 353, 6-oxo-2-phenyl-N-{(1R)-3,3,3-trifluoro-1-[4-(trifluoromethyl)phenyl]propyl}-1,6-dihydropyrimidine-4-carboxamide] |
| 62 nM | 173 nM | 129 nM | COC(=O)c1ccc([C@@H](C)NC(=O)c2cc(=O)[nH]c(-c3ccccc3)n2)cc1 [Example 359, methyl 4-[(1R)-1-{[(6-oxo-2-phenyl-1,6-dihydropyrimidin-4-yl)carbonyl]amino}ethyl]benzoate] |
| 222 nM | 459 nM | ~488 nM | CC(NC(=O)c1cc(=O)[nH]c(-c2ccccc2)n1)c1ccc2c(c1)OCCO2 (stereo not drawn) [Example 360, N-[1-(2,3-dihydro-1,4-benzodioxin-6-yl)ethyl]-6-oxo-2-phenyl-1,6-dihydropyrimidine-4-carboxamide] |
| ~78 nM | 99 nM | 81 nM | CC(C)(NC(=O)c1cc(=O)[nH]c(-c2ccccc2)n1)c1ccc(SC(F)(F)F)c(F)c1 [Example 361, N-(1-{3-fluoro-4-[(trifluoromethyl)sulfanyl]phenyl}-1-methylethyl)-6-oxo-2-phenyl-1,6-dihydropyrimidine-4-carboxamide] |
| 245 nM | 356 nM | 354 nM | CC(NC(=O)c1cc(=O)[nH]c(-c2ccccc2)n1)c1ccc(-n2cncn2)cc1 (stereo not drawn) [Example 363, 6-oxo-2-phenyl-N-{1-[4-(1H-1,2,4-triazol-1-yl)phenyl]ethyl}-1,6-dihydropyrimidine-4-carboxamide] |
| 132 nM | 458 nM | 386 nM | O=C(N[C@@H](CC(F)(F)F)c1ccc(C(F)(F)F)cc1)c1cc(=O)[nH]c(-c2ccccc2)n1 [Example 366, 6-oxo-2-phenyl-N-{(1S)-3,3,3-trifluoro-1-[4-(trifluoromethyl)phenyl]propyl}-1,6-dihydropyrimidine-4-carboxamide] |
| 74 nM | 314 nM | 262 nM | O=C(NC(c1ccc(F)cc1)c1ccc(C(F)(F)F)cc1)c1cc(=O)[nH]c(-c2ccccc2)n1 (stereo not drawn) [Example 367, N-{(4-fluorophenyl)[4-(trifluoromethyl)phenyl]methyl}-6-oxo-2-phenyl-1,6-dihydropyrimidine-4-carboxamide] |
| 68 nM | 150 nM | 117 nM | O=C(NCc1ccc(C(F)(F)F)cc1)c1cc(=O)[nH]c(-c2ccccc2)n1 [Example 371, 6-oxo-2-phenyl-N-[4-(trifluoromethyl)benzyl]-1,6-dihydropyrimidine-4-carboxamide] |
| ~149 nM |  | ~661 nM | O=C(NCc1ccc(-c2ccccc2)cc1)c1cc(=O)[nH]c(-c2ccccc2)n1 [Example 372, N-(biphenyl-4-ylmethyl)-6-oxo-2-phenyl-1,6-dihydropyrimidine-4-carboxamide] |
| 155 nM | 225 nM | 183 nM | CC(C)(NC(=O)c1cc(=O)[nH]c(-c2ccccc2)n1)c1ccccc1Br [Example 373, N-[1-(2-bromophenyl)-1-methylethyl]-6-oxo-2-phenyl-1,6-dihydropyrimidine-4-carboxamide] |
| 24 nM | 36 nM | 33 nM | C[C@@H](NC(=O)c1cc(=O)[nH]c(-c2ccccc2)n1)c1ccc(N(C)C)cc1 [Example 374, N-{(1R)-1-[4-(dimethylamino)phenyl]ethyl}-6-oxo-2-phenyl-1,6-dihydropyrimidine-4-carboxamide] |
| 28 nM |  | 58 nM | O=C(NCc1ccc(S(F)(F)(F)(F)F)cc1)c1cc(=O)[nH]c(-c2ccccc2)n1 [Example 377, 6-oxo-N-[4-(pentafluoro-λ^6-sulfanyl)benzyl]-2-phenyl-1,6-dihydropyrimidine-4-carboxamide] |
| 26 nM | 41 nM | 41 nM | COc1ccc2cc(C(C)NC(=O)c3cc(=O)[nH]c(-c4ccccc4)n3)ccc2c1 (stereo not drawn) [Example 378, N-[1-(6-methoxynaphthalen-2-yl)ethyl]-6-oxo-2-phenyl-1,6-dihydropyrimidine-4-carboxamide] |
| 69 nM |  | 114 nM | CC1Cc2cc(C(C)NC(=O)c3cc(=O)[nH]c(-c4ccccc4)n3)ccc2O1 (stereo not drawn) [Example 379, N-[1-(2-methyl-2,3-dihydro-1-benzofuran-5-yl)ethyl]-6-oxo-2-phenyl-1,6-dihydropyrimidine-4-carboxamide] |
|  | 4.2 nM | 2.9 nM | CC(C)[C@@H](NC(=O)c1cc(=O)[nH]c(-c2ccccc2)n1)c1ccc(C(F)(F)F)c(F)c1 [Example 383, N-{(1R)-1-[3-fluoro-4-(trifluoromethyl)phenyl]-2-methylpropyl}-6-oxo-2-phenyl-1,6-dihydropyrimidine-4-carboxamide] |
|  | 7 nM | 4.4 nM | CC[C@@H](NC(=O)c1cc(=O)[nH]c(-c2ccccc2)n1)c1ccc(SC(F)(F)F)c(F)c1 [Example 385, N-[(1R)-1-{3-fluoro-4-[(trifluoromethyl)sulfanyl]phenyl}pro-pyl]-6-oxo-2-phenyl-1,6-dihydropyrimidine-4-carboxamide] |
|  | 8.1 nM | 6.5 nM | CC[C@@H](NC(=O)c1cc(=O)[nH]c(-c2ccccc2)n1)c1ccc(S(F)(F)(F)(F)F)cc1 [Example 386, 6-oxo-N-{(1R)-1-[4-(pentafluoro-λ^6-sulfanyl)phenyl]propyl}-2-phenyl-1,6-dihydropyrimidine-4-carboxamide] |
|  | 9.6 nM | 8.1 nM | COc1cc(OC(F)(F)F)ccc1C(C)NC(=O)c1cc(=O)[nH]c(-c2ccccc2)n1 (stereo not drawn) [Example 387, N-{1-[2-methoxy-4-(trifluoromethoxy)phenyl]ethyl}-6-oxo-2-phenyl-1,6-dihydropyrimidine-4-carboxamide] |
|  | 4.7 nM | 3.9 nM | CC(C)[C@@H](NC(=O)c1cc(=O)[nH]c(-c2ccccc2)n1)c1ccc(S(F)(F)(F)(F)F)cc1 [Example 388, N-{(1R)-2-methyl-1-[4-(pentafluoro-λ^6-sulfanyl)phenyl]propyl}-6-oxo-2-phenyl-1,6-dihydropyrimidine-4-carboxamide] |
|  | 65 nM | 40 nM | CC(NC(=O)c1cc(=O)[nH]c(-c2ccccc2)n1)c1ccc(C(C)(C)C)cc1 (stereo not drawn) [Example 391, N-[1-(4-tert-butylphenyl)ethyl]-6-oxo-2-phenyl-1,6-dihydropyrimidine-4-carboxamide] |
|  | 5.5 nM | 3.3 nM | C[C@@H](O)[C@@H](NC(=O)c1cc(=O)[nH]c(-c2ccccc2)n1)c1ccc(C(F)(F)F)cc1 [Example 392, N-{(1S,2R)-2-hydroxy-1-[4-(trifluoromethyl)phenyl]propyl}-6-oxo-2-phenyl-1,6-dihydropyrimidine-4-carboxamide] |
|  | 55 nM | 49 nM | O=C(NC(c1ccc(C(F)(F)F)cc1)C(F)(F)F)c1cc(=O)[nH]c(-c2ccccc2)n1 (stereo not drawn) [Example 393, 6-oxo-2-phenyl-N-{2,2,2-trifluoro-1-[4-(trifluoromethyl)phenyl]ethyl}-1,6-dihydropyrimidine-4-carboxamide] |
|  | 8.2 nM | 8.6 nM | O=C(N[C@@H](c1ccc(S(F)(F)(F)(F)F)cc1)C1CC1)c1cc(=O)[nH]c(C2CC2)n1 [Example 397, 2-cyclopropyl-N-{(R)-cyclopropyl[4-(pentafluoro-λ^6-sulfanyl)phenyl]methyl}-6-oxo-1,6-dihydropyrimidine-4-carboxamide] |
|  | 2.9 nM | 2.3 nM | C[C@@H](NC(=O)c1cc(=O)[nH]c(-c2ccccc2)n1)c1ccc(SC(F)(F)F)c(F)c1 [Example 398, N-[(1R)-1-{3-fluoro-4-[(trifluoromethyl)sulfanyl]phenyl}eth-yl]-6-oxo-2-phenyl-1,6-dihydropyrimidine-4-carboxamide] |
|  | 5.2 nM | 5.8 nM | C[C@@H](NC(=O)c1cc(=O)[nH]c(-c2ccccc2)n1)c1ccc(S(F)(F)(F)(F)F)cc1 [Example 401, 6-oxo-N-{(1R)-1-[4-(pentafluoro-λ^6-sulfanyl)phenyl]ethyl}-2-phenyl-1,6-dihydropyrimidine-4-carboxamide] |
